In PubChem BioAssay (NCI):
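GI50 = concentration required for 50% inhibition of growth. At the TGI there is no net growth.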

Experiments:
Assay in all cases: NCI tumour cell line growth inhibition, 384-well format
SK-MEL-2 melanoma = tested on: SK-MEL-2 melanoma
NCI-H460 NSCLC = tested on: NCI-H460 NSCLC
KM12 colon = tested on: KM12 colon
RXF 393 renal = tested on: RXF 393 renal
OVCAR-3 ovarian = tested on: OVCAR-3 ovarian
UACC-257 melanoma = tested on: UACC-257 melanoma
UO-31 renal = tested on: UO-31 renal
OVCAR-8 ovarian = tested on: OVCAR-8 ovarian
SNB-19 CNS = tested on: SNB-19 CNS
HT29 colon = tested on: HT29 colon
UACC-62 melanoma = tested on: UACC-62 melanoma
T-47D breast = tested on: T-47D breast
A549 NSCLC = tested on: A549 NSCLC
PC-3 prostate = tested on: PC-3 prostate
MCF7 breast = tested on: MCF7 breast
MDA-MB-435 melanoma = tested on: MDA-MB-435 melanoma
SNB-75 CNS = tested on: SNB-75 CNS
SW-620 colon = tested on: SW-620 colon
NCI-H226 lung = tested on: NCI-H226 lung
A498 renal = tested on: A498 renal
MALME-3M melanoma = tested on: MALME-3M melanoma
HS 578T breast = tested on: HS 578T breast
TK-10 renal = tested on: TK-10 renal
ACHN renal = tested on: ACHN renal
HL-60(TB) leukemia = tested on: HL-60(TB) leukemia
HOP-92 NSCLC = tested on: HOP-92 NSCLC
MDA-MB-468 breast = tested on: MDA-MB-468 breast
HCC-2998 colon = tested on: HCC-2998 colon
COLO 205 colon = tested on: COLO 205 colon
IGROV1 ovarian = tested on: IGROV1 ovarian
NCI-H322M lung = tested on: NCI-H322M lung
CAKI-1 renal = tested on: CAKI-1 renal
HCT-116 colon = tested on: HCT-116 colon
BT-549 breast = tested on: BT-549 breast
HOP-62 NSCLC = tested on: HOP-62 NSCLC
RPMI-8226 leukemia = tested on: RPMI-8226 leukemia
M14 melanoma = tested on: M14 melanoma
SR leukemia = tested on: SR leukemia
HCT-15 colon = tested on: HCT-15 colon
NCI-H522 lung = tested on: NCI-H522 lung
NCI/ADR-RES ovarian = tested on: NCI/ADR-RES ovarian
SF-295 CNS = tested on: SF-295 CNS
SK-OV-3 ovarian = tested on: SK-OV-3 ovarian
DU-145 prostate = tested on: DU-145 prostate
SK-MEL-28 melanoma = tested on: SK-MEL-28 melanoma
EKVX NSCLC = tested on: EKVX NSCLC
MOLT-4 leukemia = tested on: MOLT-4 leukemia

Cn1cc(-c2ccc3c(c2)CCN3C(=O)Cc2cccc(C(F)(F)F)c2)c2c(N)ncnc21
GI50 (SK-MEL-2 melanoma): 2.71 µM | TGI (SK-MEL-2 melanoma): 12.4 µM | GI50 (NCI-H460 NSCLC): 3.9 µM | TGI (NCI-H460 NSCLC): 16.5 µM | GI50 (KM12 colon): 0.547 µM | TGI (KM12 colon): 18.2 µM | GI50 (RXF 393 renal): 1.82 µM | TGI (RXF 393 renal): 8.86 µM | GI50 (OVCAR-3 ovarian): 8.44 µM | TGI (OVCAR-3 ovarian): 21.6 µM | GI50 (UACC-257 melanoma): 9.73 µM | TGI (UACC-257 melanoma): 31 µM | GI50 (UO-31 renal): 6.72 µM | TGI (UO-31 renal): 28.4 µM | GI50 (OVCAR-8 ovarian): 5.73 µM | TGI (OVCAR-8 ovarian): 54.7 µM | GI50 (SNB-19 CNS): 15.3 µM | TGI (SNB-19 CNS): 42.9 µM | GI50 (HT29 colon): 6.6 µM | TGI (HT29 colon): 19.6 µM | GI50 (UACC-62 melanoma): 5.44 µM | TGI (UACC-62 melanoma): 17.9 µM | GI50 (T-47D breast): 2.91 µM | TGI (T-47D breast): 9.03 µM | GI50 (A549 NSCLC): 6.71 µM | TGI (A549 NSCLC): > 61.4 µM | GI50 (PC-3 prostate): 9.2 µM | TGI (PC-3 prostate): 22.6 µM | GI50 (MCF7 breast): 5.82 µM | TGI (MCF7 breast): 20.3 µM | GI50 (MDA-MB-435 melanoma): 8.32 µM | TGI (MDA-MB-435 melanoma): 29.8 µM | GI50 (SNB-75 CNS): 3.52 µM | TGI (SNB-75 CNS): 14.2 µM | GI50 (SW-620 colon): 10.6 µM | TGI (SW-620 colon): 22.9 µM | GI50 (NCI-H226 lung): 3.82 µM | TGI (NCI-H226 lung): 18.1 µM | GI50 (A498 renal): 0.967 µM | TGI (A498 renal): 17.7 µM | GI50 (MALME-3M melanoma): 2.99 µM | TGI (MALME-3M melanoma): 13.7 µM | GI50 (HS 578T breast): 1.7 µM | TGI (HS 578T breast): 7.47 µM | GI50 (TK-10 renal): 7.63 µM | TGI (TK-10 renal): 26.1 µM | GI50 (ACHN renal): 2.25 µM | TGI (ACHN renal): 19.8 µM | GI50 (HL-60(TB) leukemia): 2.21 µM | TGI (HL-60(TB) leukemia): 6.42 µM | GI50 (HOP-92 NSCLC): 3.52 µM | TGI (HOP-92 NSCLC): 13.3 µM | GI50 (MDA-MB-468 breast): 2.86 µM | TGI (MDA-MB-468 breast): 10.7 µM | GI50 (HCC-2998 colon): 15.5 µM | TGI (HCC-2998 colon): 29.6 µM | GI50 (COLO 205 colon): 7.33 µM | TGI (COLO 205 colon): 21 µM | GI50 (IGROV1 ovarian): 5.29 µM | TGI (IGROV1 ovarian): 49.9 µM | GI50 (NCI-H322M lung): 5.96 µM | TGI (NCI-H322M lung): 27.7 µM | GI50 (CAKI-1 renal): 2.14 µM | TGI (CAKI-1 renal): 12.8 µM | GI50 (HCT-116 colon): 4.12 µM | TGI (HCT-116 colon): 17.1 µM | GI50 (BT-549 breast): 5 µM | TGI (BT-549 breast): 17.6 µM | GI50 (HOP-62 NSCLC): 10.8 µM | TGI (HOP-62 NSCLC): 30.3 µM | GI50 (RPMI-8226 leukemia): 4.44 µM | TGI (RPMI-8226 leukemia): 16 µM | GI50 (M14 melanoma): 5.69 µM | TGI (M14 melanoma): 21.5 µM | GI50 (SR leukemia): 1.47 µM | TGI (SR leukemia): 3.54 µM | GI50 (HCT-15 colon): 2.69 µM | TGI (HCT-15 colon): 17.6 µM | GI50 (NCI-H522 lung): 8.97 µM | TGI (NCI-H522 lung): 21.5 µM | GI50 (NCI/ADR-RES ovarian): 5.14 µM | TGI (NCI/ADR-RES ovarian): 19.7 µM | GI50 (SF-295 CNS): 6.87 µM | TGI (SF-295 CNS): 20.5 µM | GI50 (SK-OV-3 ovarian): 1.63 µM | TGI (SK-OV-3 ovarian): 11.4 µM | GI50 (DU-145 prostate): 4.16 µM | TGI (DU-145 prostate): 22.3 µM | GI50 (SK-MEL-28 melanoma): 12.5 µM | TGI (SK-MEL-28 melanoma): 37.3 µM | GI50 (EKVX NSCLC): 3.03 µM | TGI (EKVX NSCLC): 16.2 µM | GI50 (MOLT-4 leukemia): 2.15 µM | TGI (MOLT-4 leukemia): 5.04 µM
